The source made the active and inactive calls.
Tests used:
[1] = Inhibition of Trypanosoma brucei brucei Lister 427 Nucleoside transporter P1 by scintillation counting
Leishmania infantum = assay: Antileishmanial activity against Leishmania infantum MHOM/MA/67/ITMAP263 intracellular amastigotes assessed as reduction in parasite growth after 3 days by fluorometrically; format: functional, organism-based
[2] = Inhibition of Trypanosoma brucei brucei inosine-adenosine-guanosine nucleoside hydrolase (IAG-NH)
Trypanosoma cruzi = assay: Antitrypanosomal activity against Trypanosoma cruzi Tulahuen CL2 s-galactosidase strain assessed as reduction in parasite growth after 3 days by fluorometrically; format: functional, organism-based
[3] = Inhibition of Trypanosoma vivax Inosine-adenosine-guanosine-nucleoside hydrolase
[4] = Inhibition of Trypanosoma brucei brucei Inosine guanosine nucleoside hydrolase
[5] = Inhibition of human purine nucleoside phosphorylase
[6] = Cytotoxicity against human MRC5 SV2 cells after 48 hrs; format: cell-based; settings: MRC5, 48 h
Plasmodium falciparum = assay: Antiparasitic activity against chloroquine-sensitive Plasmodium falciparum Ghana assessed as reduction in parasite growth after 3 days by fluorimetry; format: functional, organism-based
[7] = test system: Trypanosoma brucei brucei; assay: Antitrypanosomal activity against suramin sensitive Trypanosoma brucei brucei Lister 427 assessed as reduction in parasite growth after 3 days by fluorometrically; format: functional, organism-based; settings: Lister 427, 72 h
[8] = Inhibition of Trypanosoma brucei brucei Lister 427 Nucleoside/nucleobase transporter P2 transporter by scintillation counting
[9] = test system: Trypanosoma brucei brucei; assay: Antitrypanosomal activity against suramin sensitive Trypanosoma brucei brucei Lister 427 assessed as reduction in parasite growth at > 5 uM by Alamar blue assay; format: functional, organism-based
[10] = test system: Trypanosoma brucei brucei; assay: Antitrypanosomal activity against suramin sensitive Trypanosoma brucei brucei Lister 427 assessed as reduction in viability and mortality up to 20 uM over 7 hrs by in vitro lysis assay; format: functional, organism-based
[11] = test system: Trypanosoma brucei brucei; assay: Antitrypanosomal activity against suramin sensitive Trypanosoma brucei brucei Lister 427 assessed as parasite killing at 10 uM after 48 hrs; format: functional
[12] = test system: Trypanosoma brucei brucei; assay: Antitrypanosomal activity against suramin sensitive Trypanosoma brucei brucei Lister 427 infected in Swiss Webster mouse assessed as mouse survival at 50 mg/kg treated 1 day po and for 4 days in ip measured on 21 days after infectio; format: functional
[13] = test system: Trypanosoma brucei brucei; assay: Antitrypanosomal activity against suramin sensitive Trypanosoma brucei brucei Lister 427 infected in Swiss Webster mouse assessed as parasite clearance in blood at 50 mg/kg treated orally for 1 day followed by intraperitoneally for 4 days measured on 14 days post-infection; format: functional, organism-based; parameters: dose 50 mg/kg
[14] = test system: Trypanosoma brucei brucei; assay: Antitrypanosomal activity against suramin sensitive Trypanosoma brucei brucei Lister 427 infected in Swiss Webster mouse assessed as parasite clearance in blood at 50 mg/kg treated orally for 1 day followed by intraperitoneally for 4 days measured on 10 days post-infection; format: functional, organism-based; parameters: dose 50 mg/kg
[15] = test system: Trypanosoma brucei brucei; assay: Antitrypanosomal activity against suramin sensitive Trypanosoma brucei brucei Lister 427 assessed as parasite killing at 1 uM after 24 hrs; format: functional, organism-based
[16] = test system: Trypanosoma brucei brucei; assay: Antitrypanosomal activity against suramin sensitive Trypanosoma brucei brucei Lister 427 infected in Swiss Webster mouse assessed as parasite clearance in blood at 50 mg/kg treated orally for 1 day followed by intraperitoneally for 4 days measured on 21 days post-infection; format: functional, organism-based; parameters: dose 50 mg/kg
[17] = Inhibition of Trypanosoma brucei brucei Lister 427 H2 transporter by scintillation counting
[18] = test system: Trypanosoma brucei rhodesiense; assay: Antitrypanosomal activity against Trypanosoma brucei rhodesiense assessed as reduction in parasite growth after 3 days by fluorometrically; format: functional, organism-based; settings: 72 h
[19] = test system: Trypanosoma brucei brucei; assay: Antitrypanosomal activity against suramin sensitive Trypanosoma brucei brucei Lister 427 assessed as parasite killing at 0.25 uM within 5 hrs; format: functional, organism-based

Row | SMILES | Ki [1] [µM] | Activity (Leishmania infantum) | Ki [2] [µM] | Activity (Trypanosoma cruzi) | Ki [3] [µM] | Ki [4] [µM] | Ki [5] [µM] | IC50 [6] [µM] | Activity (Plasmodium falciparum) | IC50 [7] [µM] | also measured
1 | Nc1nc2c(CN3C[C@H](O)[C@H](O)[C@H]3CO)cccc2s1 | 810 | inactive | 0.56 | inactive | 0.04 | 14 | > 1000 | > 64 | inactive | > 64 | –
2 | Nc1ncnc2c(CN3C[C@H](O)[C@H](O)[C@H]3CO)csc12 | 540 | inactive | 0.056 | inactive | 0.019 | 31 | 1000 | > 64 | inactive | > 64 | Ki [8]: 125 µM
3 | OC[C@@H]1[C@@H](O)[C@@H](O)CN1Cc1c[nH]c2c(O)ncnc12 | > 1000 | inactive | 0.03 | inactive | 0.0044 | 138 | 0.0058 | > 64 | inactive | > 64 | –
4 | OC[C@@H]1[C@@H](O)[C@@H](O)CN1Cc1cccc2cncnc12 | – | inactive | – | inactive | 0.058 | – | > 1000 | > 64 | inactive | > 64 | –
5 | OC[C@@H]1[C@@H](O)[C@@H](O)CN1Cc1cccc2cccnc12 | – | inactive | 0.446 | inactive | 0.011 | 11 | > 1000 | > 64 | inactive | > 64 | –
6 | Nc1ncnc2c(CN3C[C@H](O)[C@H](O)[C@H]3CO)c[nH]c12 | 360 | inactive | 0.018 | inactive | 0.0041 | 32 | 22.5 | > 64 | inactive | 0.49 | Activity [9]: Active; Ki [8]: 8.2 µM; Activity [10]: inactive; Activity [11]: 75%; Activity [12]: 75%; Activity [13]: Active; Activity [14]: Active; Activity [15]: Active; Activity [16]: Active; Ki [17]: 590 µM; IC50 [18]: 0.26 µM; Activity [19]: Active
7 | Nc1ncnc2c(C3N[C@H](CO)[C@@H](O)[C@H]3O)c[nH]c12 (stereo partly drawn) [IMMUCILLIN A] | – | inactive | 0.0009 | inactive | 0.0062 | 0.0044 | > 10 | > 64 | inactive | > 64 | –
8 | O=c1[nH]cnc2c([C@@H]3N[C@H](CO)[C@@H](O)[C@H]3O)c[nH]c12 [FORODESINE] | – | inactive | 0.024 | inactive | 0.0062 | 0.009 | – | > 64 | inactive | > 64 | –
9 | O=c1[nH]cnc2c(CN3C[C@H](O)[C@H](O)[C@H]3CO)csc12 | 300 | inactive | 0.19 | inactive | 0.02 | 120 | 77.6 | > 64 | inactive | > 34 | –
10 | COc1ccnc2c(CN3C[C@H](O)[C@H](O)[C@H]3CO)cccc12 | – | inactive | – | inactive | 0.029 | – | > 1000 | > 64 | inactive | > 64 | –
